Patent publication US11292776B2, “Small molecule inhibitors of fungal hyphae and biofilm formation” (University of Sharjah, priority 2019, dated 2022)
≈ marks a conversion by molar mass, not a printed value.

Columns and labels:
C. albicans yeast = test: Antimicrobial activity / MIC against C. albicans growing in yeast-forming conditions; format: cell-based, C. albicans SC5314; details: for MIC: 24 h; for MIC / MIC C. albicans Yeast: MIC100, lowest concentration inhibiting 100% of growth, 24 hrs incubation; for IC50: Candida albicans, −log IC50 against C. albicans, training set of 3D QSAR, read-out: pIC50 Experimental (converted)
Protocol: (§1) Collections of bacterial and fungal strains were obtained from the laboratory of Dr. Ibrahim at Harbor-UCLA medical center, Torrance, Calif. The bacterial strains used in this study were the Gram-negative bacterium Escherichia coli and the Gram-Positive bacterium methicillin-resistant Staphylococcus aureus (MRSA) LAC300. All bacterial strains were cultured on sterile Luria-Bertani medium (LB). The fungal strain used in this study was C. albicans SC5314. C. albicans was inoculated into sterile yeast potato dextrose broth (YPD) and incubated for 24 h at 37° C. (This was used as an initial culture for all studies described), and incubated in two different media, Yeast Nitrogen Base (YNB) broth or Roswell Park Memorial Institute medium (RPMI-1640). Polymyxin B (colistin), vancomycin and Ketoconazole were purchased from (Sigma-Aldrich).
(§2) The antimicrobial activity of compounds SR1-8 on agar plates, liquid broth media and MIC were measured according to modified Clinical and Laboratory Standards Institute (CLSI). Briefly, 0.1 mL containing 10^5 CFU/mL was spread on Luria-Bertani (LB) agar plates. The plates were then incubated at 37° C. for […] with filter discs (8 mm diameter) saturated with different dilutions of the compounds (1-400 μg/mL). The inhibition zones (mm) were measured by determining the diameter of the clear area. Similarly, the activity in liquid media was measured by incubating the aforementioned concentrations of the compounds into LB broth media inoculated with 10^5 CFU/mL in 96-well microplates at 37° C. for 24 h. The turbidity representing the microbial growth was measured by microplate reader (DYNEX technologies) at OD600. […] Each test was performed in triplicate. Ketoconazole, colistin and vancomycin were employed as positive controls against C. albicans, E. coli and S. aureus bacteria, respectively. Cultures without the compounds or antimicrobials were employed as negative control.

[1] = tested on: C. albicans hyphae / biofilm; test: Inhibition of Candida biofilm (hyphae) formation, microtiter plate MTT assay; format: cell-based, C. albicans SC5314; details: for MIC: MIC100 for biofilm (hyphal) formation, 24 hrs incubation, RPMI-1640, 37° C.; for inhibition at 10 µg/mL: 10 μg/mL, hyphae growth conditions
Protocol: as §1
The MICs for cells forming biofilm were determined by a microtiter plate assay. Briefly, a 96-well polystyrene microtiter plate was seeded with 200 μL of RPMI-1640 containing 10^6 C. albicans cells in the presence of the compound of interest at concentration range of 1-100 μg/mL. After 24 h of incubation at 37° C., the biofilms were washed and the fungal viability was analyzed using 3-(4,5-dimethylthiazol-2-yl)-2,5-diphenyl tetrazolium bromide (MTT) (Sigma) and the final absorbance was measured at 540 nm. The assay was performed in triplicate and repeated three times. The MIC of the compounds causing 100% inhibition of C. albicans biofilm formation was determined by measuring the metabolic activity of biofilm compared to solvent control.

E. coli = test: Antimicrobial activity / MIC against E. coli; format: cell-based, Escherichia coli; details: MIC100, 24 hrs incubation; for MIC: Escherichia coli, read-out: MIC Bacteria E. Coli
Protocol: as §1, §2

S. aureus = test: Antimicrobial activity / MIC against S. aureus; format: cell-based, methicillin-resistant Staphylococcus aureus (MRSA) LAC300; details: Staphylococcus aureus; MIC100; 24 hrs incubation; read-out: MIC Bacteria S. aureus
Protocol: as §1, with “Polymyxin B (colistin), vancomycin and Ketoconazole were purchased from (Sigma-Aldrich).” left out
The antimicrobial activity of compounds SR1-8 on agar plates, liquid broth media and MIC were measured according to modified Clinical and Laboratory Standards Institute (CLSI). […] The inhibition zones (mm) were measured by determining the diameter of the clear area. Similarly, the activity in liquid media was measured by incubating the aforementioned concentrations of the compounds into LB broth media inoculated with 10^5 CFU/mL in 96-well microplates at 37° C. for 24 h. The turbidity representing the microbial growth was measured by microplate reader (DYNEX technologies) at OD600. […]

Protocol for human erythrocytes: DPBS-washed erythrocytes (3×10^6 cells per well) were incubated in 96-well plate with 200 μg/mL of SR compounds at 37° C. for 30 min. The hemoglobin released from lysed erythrocytes was measured using micro-plate reader at 405 nm. The absorbance value for each sample was subtracted from the absorbance value of cells treated only with washing buffer and the hemolytic activity (%) was calculated. The data display the mean±standard error (SEM) of three independent measurements.
The cytotoxic assay of SR compounds was measured by quantifying the amount of hemoglobin released by lysis of human erythrocytes as previously described. Briefly, fresh whole blood from healthy individual was collected by venipuncture and the blood was immediately centrifuged at 500 g for 10 min using benchtop centrifuge (Eppendorf 5804R Refrigerated Benchtop). […] The plate was incubated at 37° C. for 30 min, and the intact cells were precipitated by centrifugation at 500 g for 10 min at 4° C. and the supernatants (125 μL) were transferred to a flat-bottom 96-well plate to measure hemoglobin release by absorbance at 405 nm using a microplate reader. The absorbance values for each sample were subtracted from the absorbance value obtained for washing buffer-treated cells and the hemolytic activity (%) was calculated. […]

| Molecule | MIC (C. albicans yeast) | IC50 (C. albicans yeast) | MIC C. albicans Yeast (C. albicans yeast) | MIC [1] | MIC (E. coli) | MIC (S. aureus) | melting point | inhibition at 10 µg/mL [1] | MIC Bacteria E. Coli (E. coli) | erythrocyte hemolysis (positive control) (human erythrocytes) |
| --- | --- | --- | --- | --- | --- | --- | --- | --- | --- | --- |
| CC(=O)N1CCN(c2ccc(OCC3COC(Cn4ccnc4)(c4ccc(Cl)cc4Cl)O3)cc2)CC1 (centres unmarked) [Ketoconazole, reference compound] | 3 µg/mL (≈ 5.65 µM) | – | – | – | – | – | – | – | – | – |
| COc1cc(C=C2SC(=S)NC2=O)ccc1OCc1ccc(C)cc1 [SR1, 5-[3-Methoxy-4-(4-methyl-benzyloxy)-benzylidene]-2-thioxo-thiazolidin-4-one] | 400 µg/mL (≈ 1080 µM) | 1080 µM | >400 ± 15 µg/mL | 20 ± 5 µg/mL (≈ 53.8 µM) | 100 ± 10 µg/mL (≈ 269 µM) | > 400 µg/mL | 205 to 207 °C | – | – | – |
| Cc1ccc(COc2ccc(C=C3SC(=S)NC3=O)cc2Br)cc1 [SR2, 5-[3-Bromo-4-(4-methyl-benzyloxy)-benzylidene]-2-thioxo-thiazolidin-4-one] | 200 µg/mL (≈ 476 µM) | 475 µM | 200 ± 15 µg/mL (≈ 476 µM) | 10 ± 2 µg/mL (≈ 23.8 µM) | 100 ± 10 µg/mL (≈ 238 µM) | – | 217 to 219 °C | – | – | – |
| Cc1ccc(COc2ccc(C=C3SC(=S)NC3=O)cc2Cl)cc1 [SR3, 5-[3-Chloro-4-(4-methyl-benzyloxy)-benzylidene]-2-thioxo-thiazolidin-4-one] | 400 µg/mL (≈ 1060 µM) | 1060 µM | >400 ± 10 µg/mL | 20 ± 5 µg/mL (≈ 53.2 µM) | 400 ± 10 µg/mL (≈ 1060 µM) | – | 225 to 227 °C | – | – | – |
| COc1cc(C=C2SC(=S)NC2=O)ccc1OCc1ccc(C(F)(F)F)cc1 [SR4, 5-[3-Methoxy-4-(4-trifluoromethyl-benzyloxy)-benzylidene]-2-thioxo-thiazolidin-4-one] | 200 µg/mL (≈ 470 µM) | 456 µM | 200 ± 10 µg/mL (≈ 470 µM) | 20 ± 5 µg/mL (≈ 47 µM) | 100 ± 10 µg/mL (≈ 235 µM) | – | 209 to 211 °C | 50% | – | – |
| O=C1NC(=S)SC1=Cc1ccc(OCc2ccc(C(F)(F)F)cc2)c(Br)c1 [SR5, 5-[3-Bromo-4-(4-trifluoromethyl-benzyloxy)-benzylidene]-2-thioxo-thiazolidin-4-one] | 200 µg/mL (≈ 422 µM) | 470 µM | 200 ± 15 µg/mL (≈ 422 µM) | 20 ± 3 µg/mL (≈ 42.2 µM) | 400 ± 20 µg/mL (≈ 843 µM) | – | 210 to 212 °C | – | – | – |
| O=C1NC(=S)SC1=Cc1ccc(OCc2cccc(C(F)(F)F)c2)c(Br)c1 [SR6, 5-[3-Bromo-4-(3-trifluoromethyl-benzyloxy)-benzylidene]-2-thioxo-thiazolidin-4-one] | 125 µg/mL (≈ 264 µM) | 264 µM | 125 ± 10 µg/mL (≈ 264 µM) | 10 ± 5 µg/mL (≈ 21.1 µM) | 400 ± 10 µg/mL (≈ 843 µM) | – | 235 to 237 °C | 50% | – | – |
| COc1cc(C=C2SC(=S)NC2=O)ccc1OCc1cccc(C(F)(F)F)c1 [SR7, 5-[3-Methoxy-4-(3-trifluoromethyl-benzyloxy)-benzylidene]-2-thioxo-thiazolidin-4-one] | 125 µg/mL (≈ 294 µM) | 264 µM | 125 ± 10 µg/mL (≈ 294 µM) | 10 ± 3 µg/mL (≈ 23.5 µM) | 100 ± 5 µg/mL (≈ 235 µM) | – | 199 to 201 °C | 90% | – | – |
| O=C1NC(=S)SC1=Cc1ccc(OCc2cccc(C(F)(F)F)c2)c(Cl)c1 [SR8, 5-[3-Chloro-4-(3-trifluoromethyl-benzyloxy)-benzylidene]-2-thioxo-thiazolidin-4-one] | 125 µg/mL (≈ 291 µM) | 294 µM | 125 ± 10 µg/mL (≈ 291 µM) | 20 ± 5 µg/mL (≈ 46.5 µM) | 100 ± 10 µg/mL (≈ 233 µM) | – | 224 to 226 °C | 50% | – | – |
| Colistin [reference compound] | – | – | – | – | – | – | – | – | 5 µg/mL | – |
| Triton X-100 | – | – | – | – | – | – | – | – | – | 100% |
